Key:
Format in all cases: functional
NCI-H23 [1] = assay: Cytotoxicity against human NCI-H23 cells assessed as cellular growth at 0.01 uM after 48 hrs by SRB assay relative to control
NCI-H226 = assay: Cytotoxicity against human NCI-H226 cells assessed as cellular growth at 0.01 uM after 48 hrs by SRB assay relative to control
A549 [2] = assay: Cytotoxicity against human A549 cells assessed as cellular growth at 0.01 uM after 48 hrs by SRB assay relative to control
DU-145 [3] = assay: Cytotoxicity against human DU145 cells assessed as cellular growth at 100 uM after 48 hrs by SRB assay relative to control
UO-31 [4] = assay: Cytotoxicity against human UO31 cells assessed as cellular growth at 100 uM after 48 hrs by SRB assay relative to control
A498 = assay: Cytotoxicity against human A498 cells assessed as cellular growth at 100 uM after 48 hrs by SRB assay relative to control
SK-OV-3 = assay: Cytotoxicity against human SKOV3 cells assessed as cellular growth at 100 uM after 48 hrs by SRB assay relative to control
OVCAR-4 [5] = assay: Cytotoxicity against human OVCAR4 cells assessed as cellular growth at 100 uM after 48 hrs by SRB assay relative to control
SF-539 = assay: Cytotoxicity against human SF539 cells assessed as cellular growth at 100 uM after 48 hrs by SRB assay relative to control
SF-268 [6] = assay: Cytotoxicity against human SF268 cells assessed as cellular growth at 100 uM after 48 hrs by SRB assay relative to control
KM12 [7] = assay: Cytotoxicity against human KM12 cells assessed as cellular growth at 100 uM after 48 hrs by SRB assay relative to control
HCT-15 = assay: Cytotoxicity against human HCT15 cells assessed as cellular growth at 100 uM after 48 hrs by SRB assay relative to control
HOP-92 = assay: Cytotoxicity against human HOP92 cells assessed as cellular growth at 100 uM after 48 hrs by SRB assay relative to control
SK-MEL-28 = assay: Cytotoxicity against human SK-MEL-28 cells assessed as cellular growth at 10 uM after 48 hrs by SRB assay relative to control
MDA-MB-231 = assay: Cytotoxicity against human MDA-MB-231 cells assessed as cellular growth at 1 uM after 48 hrs by SRB assay relative to control
OVCAR-4 [8] = assay: Cytotoxicity against human OVCAR4 cells assessed as cellular growth at 1 uM after 48 hrs by SRB assay relative to control
M14 = assay: Cytotoxicity against human M14 cells assessed as cellular growth at 1 uM after 48 hrs by SRB assay relative to control
LOX IMVI = assay: Cytotoxicity against human LOXIMVI cells assessed as cellular growth at 1 uM after 48 hrs by SRB assay relative to control
SNB-75 = assay: Cytotoxicity against human SNB75 cells assessed as cellular growth at 1 uM after 48 hrs by SRB assay relative to control
SF-295 = assay: Cytotoxicity against human SF295 cells assessed as cellular growth at 1 uM after 48 hrs by SRB assay relative to control
K562 = assay: Cytotoxicity against human K562 cells assessed as cellular growth at 1 uM after 48 hrs by SRB assay relative to control
CCRF-CEM = assay: Cytotoxicity against human CCRF-CEM cells assessed as cellular growth at 1 uM after 48 hrs by SRB assay relative to control
MDA-MB-468 = assay: Cytotoxicity against human MDA-MB-468 cells assessed as cellular growth at 0.1 uM after 48 hrs by SRB assay relative to control
DU-145 [9] = assay: Cytotoxicity against human DU145 cells after 48 hrs by SRB assay; details: DU-145, 48 h
UO-31 [10] = assay: Cytotoxicity against human UO31 cells after 48 hrs by SRB assay; details: UO-31, 48 h
OVCAR-3 = assay: Cytotoxicity against human OVCAR3 cells after 48 hrs by SRB assay; details: OVCAR-3, 48 h
Malme-3M = assay: Cytotoxicity against human MALME-3M cells after 48 hrs by SRB assay
SF-268 [11] = assay: Cytotoxicity against human SF268 cells after 48 hrs by SRB assay; details: SF-268, 48 h
NCI-H23 [12] = assay: Cytotoxicity against human NCI-H23 cells after 48 hrs by SRB assay; details: NCI-H23, 48 h
A549 [13] = assay: Cytotoxicity against human A549 cells after 48 hrs by SRB assay; details: A549, 48 h
RXF 393 = assay: Cytotoxicity against human RXF393 cells assessed as cellular growth at 0.1 uM after 48 hrs by SRB assay relative to control
786-0 = assay: Cytotoxicity against human 786-0 cells assessed as cellular growth at 0.1 uM after 48 hrs by SRB assay relative to control
[14] = Cytotoxicity against human NCI-ADR-RES cells assessed as cellular growth at 0.1 uM after 48 hrs by SRB assay relative to control
UACC-257 = assay: Cytotoxicity against human UACC257 cells assessed as cellular growth at 0.1 uM after 48 hrs by SRB assay relative to control
KM12 [15] = assay: Cytotoxicity against human KM12 cells assessed as cellular growth at 0.1 uM after 48 hrs by SRB assay relative to control
NCI-H460 = assay: Cytotoxicity against human NCI-H460 cells assessed as cellular growth at 0.1 uM after 48 hrs by SRB assay relative to control
[16] = read-out: LC50 (the source's name)
[17] = read-out: pLC50 (the source's name) (converted)

O=C(CCCn1c2c(sc3ccccc32)c(=O)n2nnc(-c3ccccc3)c12)NCCc1c[nH]cn1
Activity (NCI-H23 [1]): 92%
Activity (NCI-H226): 97%
Activity (A549 [2]): 103%
Activity (DU-145 [3]): -100%
Activity (UO-31 [4]): -61%
Activity (A498): -97%
Activity (SK-OV-3): -100%
Activity (OVCAR-4 [5]): -87%
Activity (SF-539): -99%
Activity (SF-268 [6]): -69%
Activity (KM12 [7]): -100%
Activity (HCT-15): -100%
Activity (HOP-92): -50%
Activity (SK-MEL-28): -92%
Activity (MDA-MB-231): 101%
Activity (OVCAR-4 [8]): 91%
Activity (M14): 33%
Activity (LOX IMVI): 82%
Activity (SNB-75): 107%
Activity (SF-295): 39%
Activity (K562): 1%
Activity (CCRF-CEM): -28%
Activity (MDA-MB-468): 97%
GI50 (DU-145 [9]; read-out: GI50): 1.07 µM
CC50 (DU-145 [9]; [16]): 4.75 µM
TGI (DU-145 [9]; read-out: TGI): 2.26 µM
GI50 (DU-145 [9]; read-out: pGI50 (converted)): 1.07 µM
CC50 (DU-145 [9]; [17]): 4.79 µM
TGI (DU-145 [9]; read-out: pTGI (converted)): 2.24 µM
GI50 (UO-31 [10]; read-out: GI50): 1.3 µM
CC50 (UO-31 [10]; [16]): 5.22 µM
TGI (UO-31 [10]; read-out: TGI): 2.61 µM
GI50 (UO-31 [10]; read-out: pGI50 (converted)): 1.29 µM
CC50 (UO-31 [10]; [17]): 5.25 µM
TGI (UO-31 [10]; read-out: pTGI (converted)): 2.63 µM
GI50 (OVCAR-3; read-out: GI50): 1.66 µM
CC50 (OVCAR-3; [16]): 5.66 µM
TGI (OVCAR-3; read-out: TGI): 3.07 µM
GI50 (OVCAR-3; read-out: pGI50 (converted)): 1.66 µM
CC50 (OVCAR-3; [17]): 5.62 µM
TGI (OVCAR-3; read-out: pTGI (converted)): 3.09 µM
GI50 (Malme-3M; read-out: GI50): 1.58 µM
CC50 (Malme-3M; [16]): 6.8 µM
TGI (Malme-3M; read-out: TGI): 3.28 µM
GI50 (Malme-3M; read-out: pGI50 (converted)): 1.58 µM
CC50 (Malme-3M; [17]): 6.76 µM
TGI (Malme-3M; read-out: pTGI (converted)): 3.31 µM
GI50 (SF-268 [11]; read-out: GI50): 1.54 µM
CC50 (SF-268 [11]; [16]): 6.7 µM
TGI (SF-268 [11]; read-out: TGI): 3.21 µM
GI50 (SF-268 [11]; read-out: pGI50 (converted)): 1.55 µM
CC50 (SF-268 [11]; [17]): 6.76 µM
TGI (SF-268 [11]; read-out: pTGI (converted)): 3.24 µM
GI50 (NCI-H23 [12]; read-out: GI50): 1.34 µM
TGI (NCI-H23 [12]; read-out: TGI): 3.52 µM
GI50 (NCI-H23 [12]; read-out: pGI50 (converted)): 1.35 µM
TGI (NCI-H23 [12]; read-out: pTGI (converted)): 3.55 µM
GI50 (A549 [13]; read-out: GI50): 1.29 µM
TGI (A549 [13]; read-out: TGI): 3.21 µM
GI50 (A549 [13]; read-out: pGI50 (converted)): 1.29 µM
TGI (A549 [13]; read-out: pTGI (converted)): 3.24 µM
Activity (RXF 393): 125%
Activity (786-0): 62%
Activity [14]: 97%
Activity (UACC-257): 108%
Activity (KM12 [15]): 62%
Activity (NCI-H460): 114%

CN1CCN(CCCn2c3c(sc4ncccc43)c(=O)n3nnc(-c4ccccc4)c23)CC1
Activity (NCI-H23 [1]): 100%
Activity (NCI-H226): 95%
Activity (A549 [2]): 97%
Activity (DU-145 [3]): -88%
Activity (UO-31 [4]): -87%
Activity (A498): -92%
Activity (SK-OV-3): -95%
Activity (OVCAR-4 [5]): -70%
Activity (SF-539): -69%
Activity (SF-268 [6]): -86%
Activity (KM12 [7]): -83%
Activity (HCT-15): -69%
Activity (HOP-92): -67%
Activity (SK-MEL-28): 87%
Activity (MDA-MB-231): 87%
Activity (OVCAR-4 [8]): 93%
Activity (M14): 97%
Activity (LOX IMVI): 86%
Activity (SNB-75): 66%
Activity (SF-295): 103%
Activity (K562): 86%
Activity (CCRF-CEM): 77%
Activity (MDA-MB-468): 95%
GI50 (DU-145 [9]; read-out: GI50): 1.85 µM
CC50 (DU-145 [9]; [16]): 7.24 µM
TGI (DU-145 [9]; read-out: TGI): 3.66 µM
GI50 (DU-145 [9]; read-out: pGI50 (converted)): 1.86 µM
CC50 (DU-145 [9]; [17]): 7.24 µM
TGI (DU-145 [9]; read-out: pTGI (converted)): 3.63 µM
GI50 (UO-31 [10]; read-out: GI50): 1.03 µM
CC50 (UO-31 [10]; [16]): 5.94 µM
TGI (UO-31 [10]; read-out: TGI): 2.47 µM
GI50 (UO-31 [10]; read-out: pGI50 (converted)): 1.02 µM
CC50 (UO-31 [10]; [17]): 5.89 µM
TGI (UO-31 [10]; read-out: pTGI (converted)): 2.45 µM
GI50 (OVCAR-3; read-out: GI50): 1.81 µM
CC50 (OVCAR-3; [16]): 6.68 µM
TGI (OVCAR-3; read-out: TGI): 3.48 µM
GI50 (OVCAR-3; read-out: pGI50 (converted)): 1.82 µM
CC50 (OVCAR-3; [17]): 6.61 µM
TGI (OVCAR-3; read-out: pTGI (converted)): 3.47 µM
GI50 (Malme-3M; read-out: GI50): 1.97 µM
CC50 (Malme-3M; [16]): 6.72 µM
TGI (Malme-3M; read-out: TGI): 3.64 µM
GI50 (Malme-3M; read-out: pGI50 (converted)): 1.95 µM
CC50 (Malme-3M; [17]): 6.76 µM
TGI (Malme-3M; read-out: pTGI (converted)): 3.63 µM
GI50 (SF-268 [11]; read-out: GI50): 1.61 µM
CC50 (SF-268 [11]; [16]): 6.81 µM
TGI (SF-268 [11]; read-out: TGI): 3.31 µM
GI50 (SF-268 [11]; read-out: pGI50 (converted)): 1.62 µM
CC50 (SF-268 [11]; [17]): 6.76 µM
TGI (SF-268 [11]; read-out: pTGI (converted)): 3.31 µM
GI50 (NCI-H23 [12]; read-out: GI50): 2.14 µM
CC50 (NCI-H23 [12]; [16]): 33.7 µM
TGI (NCI-H23 [12]; read-out: TGI): 5.07 µM
GI50 (NCI-H23 [12]; read-out: pGI50 (converted)): 2.14 µM
CC50 (NCI-H23 [12]; [17]): 33.9 µM
TGI (NCI-H23 [12]; read-out: pTGI (converted)): 5.13 µM
GI50 (A549 [13]; read-out: GI50): 1.79 µM
TGI (A549 [13]; read-out: TGI): 3.4 µM
GI50 (A549 [13]; read-out: pGI50 (converted)): 1.78 µM
TGI (A549 [13]; read-out: pTGI (converted)): 3.39 µM
Activity (RXF 393): 93%
Activity (786-0): 100%
Activity [14]: 91%
Activity (UACC-257): 99%
Activity (KM12 [15]): 94%
Activity (NCI-H460): 100%
